Laboratory results from PubChem BioAssay AID602267 (Broad Institute, 2012).
Blank lines part the entries; values can stand above or below the compound they belong to. Activity calls are given as the source filed them.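 The calls were made as follows: active = signal falls with dose and the fitted half-maximal concentration is at or below twice the top valid tested dose; inconclusive = flat curve with 30 to 70% inhibition, or poor fit; inactive = wrong direction, flat within 30%, or potency beyond limit.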

Target: Golgi-associated PDZ and coiled-coil motif-containing protein (Homo sapiens) (UniProt Q9HD26)
Assay: blockers of CAL PDZ ligand groove binding – biochemical, fluorescence polarization, untagged CAL PDZ, cherry-pick, dose response (AID 602267)
Details: purified CAL PDZ, TMR-peptide fluorescence polarization, 1 h

SMILES: CC1CCC(NS(=O)(=O)c2ccc3c(c2)n(C)c(=O)c(=O)n3C)CC1 (configuration not stated)
activity change, negative = inhibition (at 50 µM (top of the series)): inactive

SMILES: O=C(NCc1ccc(Cl)cc1)C(=O)NCC1OCCN1C(=O)c1ccc(Cl)cc1 (configuration not stated)
activity change, negative = inhibition (at 50 µM (top of the series)): inactive

SMILES: Fc1ccc(-n2c(-c3ccc4ccccc4n3)n[nH]c2=S)cc1Cl
activity change, negative = inhibition (at 50 µM (top of the series)): inactive

SMILES: CC(O)CNCCCOc1cccc(Oc2ccccc2)c1 (configuration not stated)
activity change, negative = inhibition (at 50 µM (top of the series)): inactive

SMILES: O=C(COc1ccccc1)N1CCCCCCC1
activity change, negative = inhibition (at 50 µM (top of the series)): inactive

SMILES: CCOCCCNC(=O)c1ccc2c(=O)n(Cc3ccc4c(c3)OCO4)c(=S)[nH]c2c1
activity change, negative = inhibition (at 50 µM (top of the series)): inactive

SMILES: C/C(=N\NC(=O)C(O)c1ccccc1)c1ccc(Cl)s1 (configuration not stated)
activity change, negative = inhibition (at 50 µM (top of the series)): inactive

SMILES: CC(C)c1ccc(CNC(=O)C(=O)NCCCn2ccnc2)cc1
activity change, negative = inhibition (at 50 µM (top of the series)): inactive

SMILES: CC1CCN(CCCNC(=O)c2ccc3c(=O)n(Cc4ccc(Cl)cc4)c(=S)[nH]c3c2)CC1
activity change, negative = inhibition (at 50 µM (top of the series)): inactive

SMILES: Cc1ccc(NC(=O)CN(C)CC(=O)Nc2cccc(F)c2)cc1S(=O)(=O)N1CCCCCC1
activity change, negative = inhibition (at 50 µM (top of the series)): inactive

SMILES: Cc1cccc(NC(=O)Cn2cnc3c(oc4ccccc43)c2=O)c1C
activity change, negative = inhibition (at 50 µM (top of the series)): inactive

SMILES: C/C(=N/N1CCN(c2ccccn2)CC1)c1ccc([N+](=O)[O-])cc1
activity change, negative = inhibition (at 50 µM (top of the series)): inactive

SMILES: CCN(CCCn1c(=S)[nH]c2ccc(N3CCOCC3)cc2c1=O)c1ccccc1
activity change, negative = inhibition (at 50 µM (top of the series)): inactive

SMILES: Oc1ccccc1N=Cc1c(O)ccc2oc3c(c12)CCCC3
activity change, negative = inhibition (at 16 µM (top of the series)): inactive

SMILES: O=C(Nc1cc(Cl)ccc1N1CCOCC1)c1ccc2c(c1)OCCO2
activity change, negative = inhibition (at 50 µM (top of the series)): inactive

SMILES: OC(c1ccccc1)(c1ccccc1)c1nccc2ccccc12
activity change, negative = inhibition (at 50 µM (top of the series)): inactive

SMILES: O=C(Nc1nccs1)c1ccc(F)c(S(=O)(=O)N2CCOCC2)c1
activity change, negative = inhibition (at 50 µM (top of the series)): inactive

SMILES: Cc1c(Cl)c(C(=O)N2CCCC2)nn1C
activity change, negative = inhibition (at 50 µM (top of the series)): inactive

Further lines, results first:

activity change, negative = inhibition (at 50 µM (top of the series)): inactive
SMILES: Cc1cccc(C(=O)Nc2nnc(COc3ccccc3)s2)c1

activity change, negative = inhibition (at 50 µM (top of the series)): inactive
SMILES: Cc1ccc(C(=O)Nc2ccccc2)cc1S(=O)(=O)N1CCN(C)CC1

activity change, negative = inhibition (at 50 µM (top of the series)): inactive
SMILES: CC(=Nc1ccccc1O)c1sc2ccccc2c1O

activity change, negative = inhibition (at 50 µM (top of the series)): inactive
SMILES: CN(C)c1ccc(P(=O)(OC2CCCCC2)C(O)c2cccnc2)cc1 (configuration not stated)

activity change, negative = inhibition (at 50 µM (top of the series)): inactive
SMILES: COc1cc(Cl)c(CN2CCCC(CO)(Cc3cccc(Cl)c3)C2)cc1OC (configuration not stated)

activity change, negative = inhibition (at 50 µM (top of the series)): inactive
SMILES: COc1ccc(C(=O)Nc2ccc(S(=O)(=O)N3CCCC3)cc2)cc1[N+](=O)[O-]

activity change, negative = inhibition (at 50 µM (top of the series)): inactive
SMILES: CCOC(=O)CCC(=O)Nc1ccc(S(=O)(=O)N2CCC(C)CC2)cc1

activity change, negative = inhibition (at 50 µM (top of the series)): inactive
SMILES: CCCNC(=O)C(=O)NCC1CCCN1CC (configuration not stated)

activity change, negative = inhibition (at 50 µM (top of the series)): inactive
SMILES: O=[N+]([O-])c1ccccc1/C=N/Nc1nc(N2CCCC2)nc(N2CCCC2)n1

activity change, negative = inhibition (at 50 µM (top of the series)): inactive
SMILES: CCC(=O)c1ccc(N2CCC(C)CC2)c(F)c1

activity change, negative = inhibition (at 50 µM (top of the series)): inactive
SMILES: O=C(NNC(=S)NC(=O)c1ccc(Br)cc1)c1ccc([N+](=O)[O-])cc1

activity change, negative = inhibition (at 50 µM (top of the series)): inactive
SMILES: Nc1ncnc2c1C(c1ccccc1)c1c(ccc3ccccc13)O2 (configuration not stated)

activity change, negative = inhibition (at 50 µM (top of the series)): inactive
SMILES: COc1ccc(-c2nc3ccccc3o2)cc1OC

activity change, negative = inhibition (at 16 µM (top of the series)): inactive
SMILES: c1ccc(C2Nc3ccccc3Oc3ccccc32)cc1 (configuration not stated)

activity change, negative = inhibition (at 50 µM (top of the series)): inactive
SMILES: O=C(O)c1ccc(Oc2cc(Oc3ccc(C(=O)O)cc3)cc([N+](=O)[O-])c2)cc1

activity change, negative = inhibition (at 50 µM (top of the series)): inactive
SMILES: COc1ccc(OC)c(NC(=O)c2ccc(OC3CSC3)cc2)c1

activity change, negative = inhibition (at 50 µM (top of the series)): inactive
SMILES: O=C(NCC1CCCO1)c1cn(-c2ccccc2)nc1-c1ccc(F)cc1 (configuration not stated)

activity change, negative = inhibition (at 50 µM (top of the series)): inactive
SMILES: COc1ccc(OC)c(NC(=O)CS(=O)(=O)Cc2ccccc2)c1

activity change, negative = inhibition (at 50 µM (top of the series)): inactive
SMILES: CCC(C)(C)NC(=O)CSc1nc(Cc2ccccc2)nc2ccccc12

activity change, negative = inhibition (at 16 µM (top of the series)): inactive
SMILES: CCOC(=O)C1(Cc2cccc(Cl)c2)CCCN(C(=O)c2cccc(C)n2)C1 (configuration not stated)

activity change, negative = inhibition (at 50 µM (top of the series)): inactive
SMILES: O=C(O)CCCC(=O)N1N=C(c2ccccc2)CC1c1ccc2c(c1)OCO2 (configuration not stated)

activity change, negative = inhibition (at 50 µM (top of the series)): inactive
SMILES: CC1CCN(C(=O)COC(=O)c2cccs2)CC1

activity change, negative = inhibition (at 50 µM (top of the series)): inactive
SMILES: CCOC(=O)CCNC(=O)N1CCCC(CNS(=O)(=O)Cc2ccccc2)C1 (configuration not stated)

activity change, negative = inhibition (at 50 µM (top of the series)): inactive
SMILES: O=C(NC1CCCCCCC1)c1cc([N+](=O)[O-])ccc1Cl
